In ChEMBL document CHEMBL1201862, “PubChem BioAssay data set” (2004):
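1) Cells in 96-well plates. 2) Compound, 48 h, 5 concentrations. 3) Linear interpolation between surrounding doses. 4) Unreached endpoint = highest concentration. GI50 is the concentration that inhibits growth by half.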 Active and inactive are the calls of the source. Rule as the data show it: active = GI50 up to about 1.1 µM and inactive = higher.

Key:
Test in all cases: DTP human tumour cell line panel, 48 h
[1] = tested on: NCI/ADR-RES
[2] = tested on: SNB-75
[3] = tested on: UO-31
[4] = tested on: MDA-N
[5] = tested on: SK-MEL-5
[6] = tested on: HL-60
[7] = tested on: ACHN
[8] = tested on: NCI-H460
[9] = tested on: SR
[10] = tested on: MDA-MB-231
[11] = tested on: DU-145
[12] = tested on: T47D
[13] = tested on: UACC-257
[14] = tested on: NCI-H522
[15] = tested on: MDA-MB-435
[16] = tested on: HCC 2998
[17] = tested on: HOP-92
[18] = tested on: CCRF-CEM
[19] = tested on: MCF7
[20] = tested on: IGROV-1
[21] = tested on: TK-10
[22] = tested on: SW-620
[23] = tested on: LOX IMVI
[24] = tested on: RXF 393
[25] = tested on: HCT-15
[26] = tested on: KM12
[27] = tested on: K562
[28] = tested on: OVCAR-3
[29] = tested on: EKVX
[30] = tested on: SNB-19
[31] = tested on: HT-29
[32] = tested on: SF-268
[33] = tested on: RPMI-8226
[34] = tested on: PC-3
[35] = tested on: BT-549
[36] = tested on: A498
[37] = tested on: NCI-H23
[38] = tested on: M14
[39] = tested on: SK-MEL-28
[40] = tested on: CAKI-1
[41] = tested on: SK-OV-3
[42] = tested on: U-251
[43] = tested on: OVCAR-8
[44] = tested on: UACC-62
[45] = tested on: MOLT-4
[46] = tested on: COLO 205
[47] = tested on: SF-295
[48] = tested on: OVCAR-5
[49] = tested on: OVCAR-4
[50] = tested on: SN12C
[51] = tested on: Hs-578T
[52] = tested on: NCI-H226
[53] = tested on: HOP-62
[54] = tested on: SF-539
[55] = tested on: HCT-116
[56] = tested on: A549
[57] = tested on: SK-MEL-2
[58] = tested on: 786-0
[59] = tested on: Malme-3M

Structure (SMILES): O=[N+]([O-])c1cc2no[n+]([O-])c2cc1N1CCCCC1
- GI50 [1]: 3.15 µM (inactive)
- GI50 [2]: 2.39 µM (inactive)
- GI50 [3]: 2.07 µM (inactive)
- GI50 [4]: 2.59 µM (inactive)
- GI50 [5]: 15.3 µM (inactive)
- GI50 [6]: 1.5 µM (inactive)
- GI50 [7]: 2.58 µM (inactive)
- GI50 [8]: 15.6 µM (inactive)
- GI50 [9]: 2.94 µM (inactive)
- GI50 [10]: 8.47 µM (inactive)
- GI50 [11]: 2.45 µM (inactive)
- GI50 [12]: 1.39 µM (inactive)
- GI50 [13]: 8.24 µM (inactive)
- GI50 [14]: 1.48 µM (inactive)
- GI50 [15]: 2.87 µM (inactive)
- GI50 [16]: 13.2 µM (inactive)
- GI50 [17]: 2.4 µM (inactive)
- GI50 [18]: 0.38 µM (active)
- GI50 [19]: 1.95 µM (inactive)
- GI50 [20]: 3.21 µM (inactive)
- GI50 [21]: 3.33 µM (inactive)
- GI50 [22]: 1.97 µM (inactive)
- GI50 [23]: 1.79 µM (inactive)
- GI50 [24]: 1.51 µM (inactive)
- GI50 [25]: 3.21 µM
- GI50 [26]: 13.4 µM (inactive)
- GI50 [27]: 1.43 µM (inactive)
- GI50 [28]: 1.92 µM (inactive)
- GI50 [29]: 2.58 µM (inactive)
- GI50 [30]: 16.3 µM (inactive)
- GI50 [31]: 1.76 µM (inactive)
- GI50 [32]: 8.18 µM (inactive)
- GI50 [33]: 1.28 µM (inactive)
- GI50 [34]: 2.16 µM (inactive)
- GI50 [35]: 9.29 µM (inactive)
- GI50 [36]: 17.9 µM (inactive)
- GI50 [37]: 12.5 µM (inactive)
- GI50 [38]: 2.62 µM (inactive)
- GI50 [39]: 7.28 µM (inactive)
- GI50 [40]: 3.35 µM (inactive)
- GI50 [41]: 14 µM (inactive)
- GI50 [42]: 3.93 µM (inactive)
- GI50 [43]: 1.95 µM (inactive)
- GI50 [44]: 13.4 µM (inactive)
- GI50 [45]: 1.06 µM (active)
- GI50 [46]: 5.37 µM (inactive)
- GI50 [47]: 17.4 µM (inactive)
- GI50 [48]: 8.39 µM (inactive)
- GI50 [49]: 2.25 µM (inactive)
- GI50 [50]: 1.99 µM (inactive)
- GI50 [51]: 25.1 µM (inactive)
- GI50 [52]: 39.8 µM (inactive)
- GI50 [53]: 4.34 µM (inactive)
- GI50 [54]: 2.39 µM (inactive)
- GI50 [55]: 1.93 µM (inactive)
- GI50 [56]: 11.3 µM (inactive)
- GI50 [57]: 7.05 µM (inactive)
- GI50 [58]: 1.29 µM (inactive)

Structure (SMILES): O=C(/C=C/c1cccc(Br)c1)N1CCN(CCOC(c2ccccc2)c2ccccc2)CC1
- GI50 [1]: 35.6 µM (inactive)
- GI50 [2]: 26.2 µM (inactive)
- GI50 [3]: 25.4 µM (inactive)
- GI50 [4]: 41.4 µM (inactive)
- GI50 [5]: 16 µM (inactive)
- GI50 [6]: 17.4 µM (inactive)
- GI50 [7]: 57.3 µM (inactive)
- GI50 [8]: 31.8 µM (inactive)
- GI50 [9]: 16.1 µM (inactive)
- GI50 [10]: > 100 µM (inactive)
- GI50 [11]: 37.5 µM (inactive)
- GI50 [12]: 23.6 µM (inactive)
- GI50 [59]: 36.4 µM (inactive)
- GI50 [13]: 63.5 µM (inactive)
- GI50 [14]: 29.1 µM (inactive)
- GI50 [15]: 38.7 µM (inactive)
- GI50 [16]: 46.6 µM (inactive)
- GI50 [17]: 23 µM (inactive)
- GI50 [18]: 17.1 µM (inactive)
- GI50 [19]: 35 µM (inactive)
- GI50 [20]: 81.7 µM (inactive)
- GI50 [21]: > 100 µM (inactive)
- GI50 [22]: 50.8 µM (inactive)
- GI50 [23]: 24.2 µM (inactive)
- GI50 [24]: 35.7 µM (inactive)
- GI50 [25]: 27.6 µM
- GI50 [26]: 32 µM (inactive)
- GI50 [27]: 13 µM (inactive)
- GI50 [28]: 50.5 µM (inactive)
- GI50 [29]: > 100 µM (inactive)
- GI50 [30]: > 100 µM (inactive)
- GI50 [31]: 21.6 µM (inactive)
- GI50 [32]: > 100 µM (inactive)
- GI50 [33]: 12.2 µM (inactive)
- GI50 [34]: 44.1 µM (inactive)
- GI50 [35]: 26.5 µM (inactive)
- GI50 [36]: 44.9 µM (inactive)
- GI50 [37]: 42 µM (inactive)
- GI50 [38]: 62.2 µM (inactive)
- GI50 [39]: > 100 µM (inactive)
- GI50 [40]: > 100 µM (inactive)
- GI50 [41]: > 100 µM (inactive)
- GI50 [42]: 35.3 µM (inactive)
- GI50 [43]: 55.5 µM (inactive)
- GI50 [44]: 25.9 µM (inactive)
- GI50 [45]: 6.53 µM (inactive)
- GI50 [46]: 17.5 µM (inactive)
- GI50 [47]: 53.7 µM (inactive)
- GI50 [48]: > 100 µM (inactive)
- GI50 [49]: 63.2 µM (inactive)
- GI50 [50]: 31.7 µM (inactive)
- GI50 [51]: > 100 µM (inactive)
- GI50 [52]: 45 µM (inactive)
- GI50 [53]: > 100 µM (inactive)
- GI50 [54]: 18.4 µM (inactive)
- GI50 [55]: 29.3 µM (inactive)
- GI50 [56]: 43.2 µM (inactive)
- GI50 [57]: 43.6 µM (inactive)
- GI50 [58]: 40.1 µM (inactive)

Structure (SMILES): CCCCCNC(=O)OC1CCn2c1nc1c2C(=O)C(C)=C(N2CC2)C1=O (stereo not drawn)
- GI50 [1]: 2.56 µM (inactive)
- GI50 [2]: 1.22 µM (inactive)
- GI50 [3]: 1.83 µM (inactive)
- GI50 [4]: 1.5 µM (inactive)
- GI50 [5]: 0.568 µM (active)
- GI50 [6]: 6.05 µM (inactive)
- GI50 [7]: 0.548 µM (active)
- GI50 [8]: 0.218 µM (active)
- GI50 [9]: 20.7 µM (inactive)
- GI50 [10]: 2.01 µM (inactive)
- GI50 [11]: 0.351 µM (active)
- GI50 [12]: 3.23 µM (inactive)
- GI50 [59]: 2.19 µM (inactive)
- GI50 [13]: 1.67 µM (inactive)
- GI50 [14]: 0.769 µM (active)
- GI50 [15]: 1.62 µM (inactive)
- GI50 [16]: 0.311 µM (active)
- GI50 [17]: 21.4 µM (inactive)
- GI50 [18]: 26.5 µM (inactive)
- GI50 [19]: 0.453 µM (active)
- GI50 [20]: 1.37 µM (inactive)
- GI50 [21]: 4.83 µM (inactive)
- GI50 [22]: 0.492 µM (active)
- GI50 [23]: 0.229 µM (active)
- GI50 [24]: 0.543 µM (active)
- GI50 [25]: 1.92 µM
- GI50 [26]: 1.64 µM (inactive)
- GI50 [27]: 1.67 µM (inactive)
- GI50 [28]: 1.79 µM (inactive)
- GI50 [30]: 2.9 µM (inactive)
- GI50 [31]: 0.593 µM (active)
- GI50 [32]: 0.946 µM (active)
- GI50 [33]: 2.4 µM (inactive)
- GI50 [34]: 1.05 µM (active)
- GI50 [35]: 1.67 µM (inactive)
- GI50 [36]: 1.75 µM (inactive)
- GI50 [37]: 1.24 µM (inactive)
- GI50 [38]: 1.45 µM (inactive)
- GI50 [39]: 1.41 µM (inactive)
- GI50 [40]: 1.2 µM (inactive)
- GI50 [42]: 1.67 µM (inactive)
- GI50 [43]: 1.46 µM (inactive)
- GI50 [44]: 1.75 µM (inactive)
- GI50 [45]: 10.7 µM (inactive)
- GI50 [46]: 1.41 µM (inactive)
- GI50 [47]: 1.2 µM (inactive)
- GI50 [48]: 3.05 µM (inactive)
- GI50 [49]: 1.3 µM (inactive)
- GI50 [50]: 1.43 µM (inactive)
- GI50 [51]: 2.32 µM (inactive)
- GI50 [52]: 2 µM (inactive)
- GI50 [54]: 2 µM (inactive)
- GI50 [55]: 1.24 µM (inactive)
- GI50 [56]: 0.526 µM (active)
- GI50 [57]: 1.63 µM (inactive)
- GI50 [58]: 0.455 µM (active)
